ChEMBL document CHEMBL3045765, “Quantitative structure-fungitoxicity relationships of some monohydric alcohols” (J Agric Food Chem, 2003)

Experiments:
[1] = test system: Colletotrichum gloeosporioides; experiment: Fungitoxicity against Colletotrichum gloeosporioides assessed as mycelial growth inhibition by poisoned food technique; format: functional, organism-based; settings: for minimal effective concentration: read-out: MEC
[2] = test system: Colletotrichum gloeosporioides; experiment: Fungitoxicity against Colletotrichum gloeosporioides assessed as mycelial growth inhibition at 1200 mg/L by poisoned food technique; format: functional; settings: read-out: GI

C=C[C@H](O)CCCCC
EC50 ([1]; read-out: EC50): 1290 µg/mL
EC50 ([1]; read-out: pEC50 (converted)): 10 mM

CCCCCCCO [1-HEPTANOL]
EC50 ([1]; read-out: EC50): 546 µg/mL
minimal effective concentration [1]: 182 µg/mL
EC50 ([1]; read-out: pEC50 (converted)): 4.68 mM

CCCCCCO [1-HEXANOL]
EC50 ([1]; read-out: EC50): 1270 µg/mL
minimal effective concentration [1]: 772 µg/mL
EC50 ([1]; read-out: pEC50 (converted)): 12 mM

CCCCCO [1-PENTANOL]
EC50 ([1]; read-out: EC50): 2130 µg/mL
minimal effective concentration [1]: 712 µg/mL
EC50 ([1]; read-out: pEC50 (converted)): 24 mM

CC(C)CCO [3-METHYLBUTANOL]
EC50 ([1]; read-out: EC50): 3710 µg/mL
EC50 ([1]; read-out: pEC50 (converted)): 41.7 mM

CC(C)[C@@H]1CC[C@@H](C)C[C@@H]1O [(+) NEOMENTHOL]
EC50 ([1]; read-out: EC50): 488 µg/mL
EC50 ([1]; read-out: pEC50 (converted)): 3.09 mM

CCO [ALCOHOL]
EC50 ([1]; read-out: EC50): 17700 µg/mL
minimal effective concentration [1]: 5490 µg/mL

OCc1ccccc1 [BENZYL ALCOHOL]
EC50 ([1]; read-out: EC50): 1180 µg/mL
EC50 ([1]; read-out: pEC50 (converted)): 11 mM

CCCCO [BUTYL ALCOHOL]
EC50 ([1]; read-out: EC50): 3690 µg/mL
minimal effective concentration [1]: 910 µg/mL
EC50 ([1]; read-out: pEC50 (converted)): 50.1 mM

CCCCCCCCCCCCCCCCCCO [CETOSTEARYL ALCOHOL]
EC50 ([1]; read-out: EC50): > 225 µg/mL
minimal effective concentration [1]: > 225 µg/mL
EC50 ([1]; read-out: pEC50 (converted)): > 1.26 mM

CCCCCCCCCCCCCCCCO [CETYL ALCOHOL]
inhibition of growth at 1200 µg/mL [2]: 5%
EC50 ([1]; read-out: EC50): > 1200 µg/mL
EC50 ([1]; read-out: pEC50 (converted)): > 5.25 mM

CC(C)=CCCC(C)CCO (stereo unspecified) [CITRONELLOL]
EC50 ([1]; read-out: EC50): 84 µg/mL
EC50 ([1]; read-out: pEC50 (converted)): 0.537 mM

CCCCCCCCCCO [DECANOL]
EC50 ([1]; read-out: EC50): 112 µg/mL
minimal effective concentration [1]: 52 µg/mL
EC50 ([1]; read-out: pEC50 (converted)): 0.708 mM

CC(C)=CCC/C(C)=C/CO [GERANIOL]
EC50 ([1]; read-out: EC50): 100 µg/mL
EC50 ([1]; read-out: pEC50 (converted)): 0.646 mM

CC(C)CO [ISOBUTANOL]
EC50 ([1]; read-out: EC50): 8200 µg/mL

CC(C)O [ISOPROPYL ALCOHOL]
EC50 ([1]; read-out: EC50): 18200 µg/mL

C=CC(C)(O)CCC=C(C)C (stereo unspecified) [LINALOOL]
EC50 ([1]; read-out: EC50): 1090 µg/mL
EC50 ([1]; read-out: pEC50 (converted)): 7.08 mM

CC1CCC(C(C)C)C(O)C1 (stereo unspecified) [MENTHOL]
EC50 ([1]; read-out: EC50): 452 µg/mL
EC50 ([1]; read-out: pEC50 (converted)): 2.88 mM

CO [METHYL ALCOHOL]
EC50 ([1]; read-out: EC50): 24700 µg/mL
minimal effective concentration [1]: 8000 µg/mL

CCCCCCCCO [OCTANOL]
EC50 ([1]; read-out: EC50): 298 µg/mL
minimal effective concentration [1]: 87 µg/mL
EC50 ([1]; read-out: pEC50 (converted)): 2.29 mM

OCCc1ccccc1 [PHENYLETHYL ALCOHOL]
EC50 ([1]; read-out: EC50): 1000 µg/mL
EC50 ([1]; read-out: pEC50 (converted)): 8.13 mM

CCCO [PROPANOL]
EC50 ([1]; read-out: EC50): 8980 µg/mL
minimal effective concentration [1]: 4430 µg/mL

CC(C)(C)O [TERT-BUTANOL]
EC50 ([1]; read-out: EC50): 17100 µg/mL
